Test results as given in patent US4983597A, “Beta-lactams as anticholesterolemic agents” (Merck & Co., Inc., priority 1989, dated 1991).

Each compound was assayed against T1, HMG-CoA synthase (Rattus norvegicus, UniProt P17425) (assay: HMG-CoA Synthase Inhibition Assay). Conditions: Table I; rat liver enzyme, 1-[14C]-acetyl-CoA incorporation.
T1 construct: The livers from male Charles River CD rats (225-350 g) were homogenized; from tissue; host or cells: rat liver (male Charles River CD rats), 100,000 x g supernatant, ammonium sulfate and DEAE-52 fraction
T1 sequence (P17425 1-520): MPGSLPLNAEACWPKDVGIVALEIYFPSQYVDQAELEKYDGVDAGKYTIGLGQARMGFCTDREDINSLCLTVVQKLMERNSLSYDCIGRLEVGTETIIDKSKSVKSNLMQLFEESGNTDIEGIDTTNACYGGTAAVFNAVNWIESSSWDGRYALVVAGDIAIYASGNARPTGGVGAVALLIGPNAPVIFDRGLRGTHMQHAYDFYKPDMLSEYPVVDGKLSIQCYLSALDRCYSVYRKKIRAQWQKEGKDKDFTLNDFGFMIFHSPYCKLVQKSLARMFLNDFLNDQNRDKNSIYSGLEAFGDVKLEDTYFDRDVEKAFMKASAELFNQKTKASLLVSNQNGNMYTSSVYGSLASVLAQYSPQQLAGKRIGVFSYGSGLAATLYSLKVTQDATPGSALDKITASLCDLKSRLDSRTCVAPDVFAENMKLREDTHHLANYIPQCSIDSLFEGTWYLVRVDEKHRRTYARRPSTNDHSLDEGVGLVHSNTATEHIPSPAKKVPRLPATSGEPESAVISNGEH
Type: biochemical
Description: The intrinisic HMG-CoA synthase inhibition activity of the compounds of this invention is measured by the standard in vitro protocol described below:
The livers from male Charles River CD rats (225-350 g) were homogenized in 0.25 M sucrose which was adjusted with phenylmethylsulfonylfluoride (PMSF) and N-p-tosyl-1-lysine chloromethyl ketone (TLCK) so that the final concentration of each was […], respectively. The homogenate was centrifuged at 15,000× g for 20 minutes, the supernatant filtered through a fine nylon screen to remove most of the fat layer and recentrifuged at 100,000× g for 1 hour. This supernatant was removed and 1 M potassium phosphate, dithiothreitol (DTT) and ethylene glycolbis(β-aminoethyl ether)-N,N,N',N'-tetraacetic acid (EGTA) added to give a final concentration of 0.1 M (pH 7.2), 0.5 mM and 0.1 mM, respectively. Solid ammonium sulfate was added to 50% saturation to the protein solution, it was centrifuged at 15,000× g and the supernatant discarded. This precipitated protein could be stored at -70° C. for at least one month with very little loss of activity. The ammonium sulfate precipitate was dissolved in an minimal amount of 0.06 M potassium phosphate buffer (pH 7.2) containing 0.5 mM dithiothreitol and 0.1 mM EGTA (referred to as 0.06 M phosphate buffer) and dialyzed overnight against 2 liters of the same buffer to remove the ammonium sulfate and to inactivate HMG-CoA lyase [Clinkenbeard, et al., J. Biol. Chem. 250, 3108-3116(1975)].
The dialyzed extract was added to a column of DEAE-52 (Whatman) which had been equilibrated with 0.06 M phosphate buffer (10 mg of protein in 1 ml bed volume of the resin). The DEAE-cellulose was eluted with 0.06 M phosphate buffer until the optical density at 280 nm was essentially zero. This fraction contained the β-ketoacetyl-CoA thiolase activity. The HMG-CoA synthase was eluted from the column with 0.1 M phosphate buffer (pH 7.2) containing 0.5 mM DTT and […] EGTA, and was virtually free of all thiolase activity. The protein was precipitated by the addition of ammonium sulfate to give 50% saturation. This solution was stirred for 10 minutes at 4° C. and the precipitate collected by centrifugation at 15,000 rpm for 10 minutes. The supernatant was discarded and the precipitate dissolved in a minimum of 0.06 M phosphate buffer, pH 7.2 (about 10 ml) and the enzyme stored at -80° C.
HMG-CoA Synthase Inhibition Assay
Enzyme protein (ca. 24 mg) was added to a solution containing […] Tris-HCl (pH 8.0), 11.7 μM MgCl2, 1.17 μM ethylenediaminetetraacetic acid (EDTA), 0.58 μM dithiothreitol, and the indicated concentrations of the test compound (added as a 2 mg/ml solution in dimethylsulfoxide). The incubation took place in a volume of 0.085 ml at 30° in a shaking water bath. After 5 minutes, […] of a solution containing acetoacetyl-CoA and 0.1 μCi of 1-[^14 C]-acetyl-CoA was added to give a final concentrations of 0.1 and 0.4 μM, respectively. The incubation was continued for 10 more minutes and the reaction stopped by the addition of […] of the assay mixture to 0.2 ml of 6N HCl in a glass scintillation vial. The vial was heated for 1 hour at 120° after which time 0.2 ml more of 6N HCl was again added to each vial and the heating continued for another hour. Following this, 1.0 ml of 0.9% saline was added to each vial and finally 10 ml of scintillation liquid. Radioactivity was determined in a Packard Tri-Carb liquid scintillation counter. Percent inhibition is calculated by the formula: [formula]
IC50 values were determined by plotting the log of the concentration of the test compound verses the percentage inhibition and fitting a straight line to the resulting data by using the least squares method.

| Structure (SMILES) | IC50 |
| --- | --- |
| CC[C@@H]1C(=O)N(S(=O)(=O)c2ccc(C)cc2)[C@@H]1COC(=O)c1ccsc1 (relative stereo) [Table I a] | 710 nM |
| COc1ccc(C(=O)OC[C@@H]2[C@H](CO)C(=O)N2S(=O)(=O)c2ccc(C)cc2)cc1 (relative stereo) [Table I aa] | 180 nM |
| CC[C@@H]1C(=O)N(S(=O)(=O)c2ccc(C)cc2)[C@@H]1COC(=O)c1cccc(NS(C)(=O)=O)c1 (relative stereo) [Table I b] | 25 nM |
| CC[C@@H]1C(=O)N(S(=O)(=O)c2ccc(C)cc2)[C@@H]1COC(=O)c1cccnc1 (relative stereo) [Table I bb] | 64 nM |
| CC[C@@H]1C(=O)N(S(=O)(=O)c2ccc(C)cc2)[C@@H]1COC(=O)c1ccccc1[N+](=O)[O-] (relative stereo) [Table I c] | 23 nM |
| CC[C@@H]1C(=O)N(S(=O)(=O)c2ccc(C)cc2)[C@@H]1COC(=O)c1ccc(OC)cc1 (relative stereo) [Table I cc] | 30 nM |
| CC[C@@H]1C(=O)N(S(=O)(=O)c2ccc(C)cc2)[C@@H]1COC(=O)c1ccncc1 (relative stereo) [Table I d] | 62 nM |
| CC[C@@H]1C(=O)N(S(=O)(=O)c2ccc(C)cc2)[C@@H]1COC(=O)c1ccccc1 (relative stereo) [Table I dd] | 110 nM |
| CC[C@@H]1C(=O)N(S(=O)(=O)c2ccc(C)cc2)[C@@H]1COC(=O)c1ccccn1 (relative stereo) [Table I e] | 54 nM |
| CC[C@@H]1C(=O)N(S(=O)(=O)c2ccc(C)cc2)[C@@H]1COC(=O)c1cc2ccccc2oc1=O (relative stereo) [Table I ee] | 50 nM |
| CC[C@@H]1C(=O)N(S(=O)(=O)c2ccc(C)cc2)[C@@H]1COC(=O)c1ccc(OC)nc1 (relative stereo) [Table I f] | 41 nM |
| CC[C@@H]1C(=O)N(S(=O)(=O)c2ccc(C)cc2)[C@@H]1COC(=O)c1cc2ccccc2o1 (relative stereo) [Table I ff] | 33 nM |
| CC[C@@H]1C(=O)N(S(=O)(=O)c2ccc(C)cc2)[C@@H]1COC(=O)c1ccco1 (relative stereo) [Table I g] | 7.9 nM |
| CCCCc1ccc(C(=O)OC[C@@H]2[C@H](CC)C(=O)N2S(=O)(=O)c2ccc(C)cc2)nc1 (relative stereo) [Table I h] | 45 nM |
| COc1ccc(C(=O)OC[C@@H]2[C@H](C(C)C)C(=O)N2S(=O)(=O)c2ccc(C)cc2)cc1 (relative stereo) [Table I hh] | 130 nM |
| CC[C@@H]1C(=O)N(S(=O)(=O)c2ccc(C)cc2)[C@@H]1COC(=O)c1ccc(C(=O)OC)cc1 (relative stereo) [Table I ii] | 8.5 nM |
| CCCCNC(=O)c1ccc(C(=O)OC[C@@H]2[C@H](CC)C(=O)N2S(=O)(=O)c2ccc(C)cc2)cc1 (relative stereo) [Table I jj] | 20 nM |
| CC[C@@H]1C(=O)N(S(=O)(=O)c2ccc(C)cc2)[C@@H]1COC(=O)c1cccc([N+](=O)[O-])c1 (relative stereo) [Table I k] | 39 nM |
| CC[C@@H]1C(=O)N(S(=O)(=O)c2ccc(C)cc2)[C@@H]1COC(=O)c1ccc(N)cc1 (relative stereo) [Table I kk] | 47 nM |
| CC[C@@H]1C(=O)N(S(=O)(=O)c2ccc(C)cc2)[C@@H]1COC(=O)c1ccccc1NS(C)(=O)=O (relative stereo) [Table I l] | 31 nM |

| Structure (SMILES) | IC50 |
| --- | --- |
| C=CCOc1c(OC)cc(C(=O)OC[C@@H]2[C@H](CC)C(=O)N2S(=O)(=O)c2ccc(C)cc2)cc1[N+](=O)[O-] (relative stereo) [Table I ll] | 160 nM |
| CC[C@@H]1C(=O)N(S(=O)(=O)c2ccc(C)cc2)[C@@H]1COC(=O)c1ccnnc1 (relative stereo) [Table I m] | 82 nM |
| C=CCOc1c(NC(C)=O)cc(C(=O)OC[C@@H]2[C@H](CC)C(=O)N2S(=O)(=O)c2ccc(C)cc2)cc1OC (relative stereo) [Table I mm] | 300 nM |
| CC[C@@H]1C(=O)N(S(=O)(=O)c2ccc(C)cc2)[C@@H]1COC(=O)c1ccccc1N (relative stereo) [Table I n] | 31 nM |
| CC[C@@H]1C(=O)N(S(=O)(=O)c2ccc(C)cc2)[C@@H]1COC(=O)c1ccc(NS(C)(=O)=O)cc1 (relative stereo) [Table I nn] | 16 nM |
| CC[C@@H]1C(=O)N(S(=O)(=O)c2ccc(C)cc2)[C@@H]1COC(=O)c1ccoc1 (relative stereo) [Table I o] | 320 nM |
| CC[C@@H]1C(=O)N(S(=O)(=O)c2ccc(C)cc2)[C@@H]1COC(=O)c1cnc(OC)c(OC)c1 (relative stereo) [Table I oo] | 38 nM |
| CC[C@@H]1C(=O)N(S(=O)(=O)c2ccc(C)cc2)[C@@H]1COC(=O)c1ccc2ccccc2n1 (relative stereo) [Table I p] | 21 nM |
| CC[C@@H]1C(=O)N(S(=O)(=O)c2ccc(C)cc2)[C@@H]1COC(=O)c1ccc(OC)c(OC)n1 (relative stereo) [Table I pp] | 89 nM |
| CC[C@@H]1C(=O)N(S(=O)(=O)c2ccc(C)cc2)[C@@H]1COC(=O)c1ccc(OCc2ccccc2)cc1 (relative stereo) [Table I q] | 40 nM |
| CC[C@@H]1C(=O)N(S(=O)(=O)c2ccc(C)cc2)[C@@H]1COC(=O)c1csc(OC)n1 (relative stereo) [Table I qq] | 45 nM |
| CC[C@@H]1C(=O)N(S(=O)(=O)c2ccc(C)cc2)[C@@H]1COC(=O)c1ccnc2ccccc12 (relative stereo) [Table I r] | 25 nM |
| CCC[C@@H]1C(=O)N(S(=O)(=O)c2ccc(C)cc2)[C@H]1COC(=O)c1ccc(OC)cc1 (relative stereo) [Table I rr] | 35 nM |
| CC[C@@H]1C(=O)N(S(=O)(=O)c2ccc(C)cc2)[C@@H]1COC(=O)c1cccs1 (relative stereo) [Table I s] | 38 nM |
| COc1ccc(C(=O)OC[C@H]2[C@H](CO)C(=O)N2S(=O)(=O)c2ccc(C)cc2)cc1 (relative stereo) [Table I ss] | 150 nM |
| CC[C@@H]1C(=O)N(S(=O)(=O)c2ccc(C)cc2)[C@@H]1COC(=O)c1cccnc1Oc1ccccc1 (relative stereo) [Table I t] | 33 nM |
| CC[C@@H]1C(=O)N(S(=O)(=O)c2ccc(C)cc2)[C@H]1COC(=O)c1ccc(OC)cc1 (relative stereo) [Table I tt] | 170 nM |
| CC[C@@H]1C(=O)N(S(=O)(=O)c2ccc(C)cc2)[C@@H]1COC(=O)c1cccc(NC(C)=O)c1 (relative stereo) [Table I u] | 72 nM |
| CC[C@@H]1C(=O)N(S(=O)(=O)c2ccc(C)cc2)[C@@H]1COC(=O)c1cccc(N)c1 (relative stereo) [Table I v] | 45 nM |
| CC[C@@H]1C(=O)N(S(=O)(=O)c2ccc(C)cc2)[C@@H]1COC(=O)c1ccc(C(=O)OC(c2ccccc2)c2ccccc2)cc1 (relative stereo) [Table I w] | 62 nM |
